Reference: paper PMC7515716 (2020)

Columns and labels:
[1] = system: xpt/pbuE*6U guanine riboswitch (RNA, riboswitch) AAAUUAAAUAGCUAUUAUCACGAUUUUUAUAAUCGCGUGGAUAUGGCACGCAAGUUUCUACCGGGCACCGUAAAUGUCCGACUAAAAAUCCUGAUUACAAAAUUUGUUUAUGACAUUUUUUGUAAUCAGGAUUUUUUAUUUAUCAAAACAUUUAAGUAAAGGAGUUUGUUAUGUUUUUUUUGGCCAGUGAAUUCGAGCUCGGUACCCGGGGAUCCUCUAGAAAUAUGGAUUACUUGGUAGAACAGCAAUCUACUCGACCUGCAGGCAUGCAAGCUUGGCGUAAUCAUGGUCAUAGCUGUUUCCUGUGUUUAUCCGCUCACAAUUCCACACAACAUACGAGCCGGAAGCAUAAAG; assay: SPRINT: multiple-turnover transcription read-through, Cas13a fluorescence; conditions: 70 mM Na+ (NaCl), 2.5 mM Mg2+
[2] = system: ribD/pbuE*7U FMN riboswitch (RNA, riboswitch) AAAUUAAAUAGCUAUUAUCACGAUUUUUCGGGGCAGGGUGGAAAUCCCGACCGGCGGUAGUAAAGCACAUUUGCUUUAGAGCCCGUGACCCGUGUGCAUAAGCACGCGGUGGAUUCAGUUUAAGCUGAAGCCGACAGUGAAAGUCUGGAUGGGAGAAAAAUCCUGAUUACAAAAUUUGUUUAUGACAUUUUUUGUAAUCAGGAUUUUUUUAUUUAUCAAAACAUUUAAGUAAAGGAGUUUGUUAUGUUUUUUUUGGCCAGUGAAUUCGAGCUCGGUACCCGGGGAUCCUCUAGAAAUAUGGAUUACUUGGUAGAACAGCAAUCUACUCGACCUGCAGGCAUGCAAGCUUGGCGUAAUCAUGGUCAUAGCUGUUUCCUGUGUUUAUCCGCUCACAAUUCCACACAACAUACGAGCCGGAAGCAUAAAG; assay: as above; conditions: 70 mM Na+ (NaCl), 10 mM Mg2+; SPRINT buffer, 37 °C; low-affinity response

SMILES | binding [1] | binding [2]
CNc1nc2[nH]cnc2c(=O)[nH]1 | weak | 
Cc1cc2nc3c(=O)[nH]c(=O)nc-3n(C[C@H](O)[C@H](O)[C@H](O)COP(=O)(O)OP(=O)(O)OC[C@H]3O[C@@H](n4cnc5c(N)ncnc54)[C@H](O)[C@@H]3O)c2cc1C |  | weak
